As usually defined, the EC50 is the concentration needed to bring the measured effect to its halfway point.

Here are results for one compound from BindingDB's records for doi:10.1021/jm400638v (The University of Queensland, 2013).

Molecules are shown by their SMILES. Where a SMILES comes first, the peptide text is derived from it. The star is where a group is joined. Palmitoyl = CCCCCCCCCCCCCCCC(=O)*

This assay is described as follows: Agonist activity at […] in human platelets by platelet aggregation assay in presence of SFLLRN.

`CCCCCCCCCCCCCCCC(=O)N[C@@H](CCCN=C(N)N)C(=O)N[C@@H](CS)C(=O)N[C@@H](CC(C)C)C(=O)N[C@@H](CO)C(=O)N[C@@H](CO)C(=O)N[C@@H](CO)C(=O)N[C@@H](C)C(=O)N[C@H](C(=O)N[C@@H](C)C(=O)N[C@@H](CC(N)=O)C(=O)N[C@@H](CCCN=C(N)N)C(=O)N[C@@H](CO)C(=O)N[C@@H](CCCCN)C(=O)N[C@@H](CCCCN)C(=O)N[C@@H](CO)C(=O)N[C@@H](CCCN=C(N)N)C(=O)N[C@@H](CC(C)C)C(=O)N[C@@H](Cc1ccccc1)C(=O)O)C(C)C` (Palmitoyl-RCLSSSAVANRSKKSRLF-OH): the EC50 amounted to 8 µM.
